From PubChem BioAssay (NCI)
Values joined by “and” are separate entries in the source; they are usually repeats but may differ in a detail not shown here. Identical values can stand only once.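 Exposure lasted 48 hours, with cells grown in 96-well plates and compounds tested at five concentrations. Here, GI50 denotes the concentration required for 50% inhibition of growth. The concentration for full growth arrest is given as TGI.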

Tested on: MDA-MB-468 breast
Test: NCI tumour cell line growth inhibition, 48 h

| SMILES | GI50 | TGI |
| --- | --- | --- |
| COc1cc2c(cc1OCCCN1CCN(CCCOc3cc4c(cc3OC)C(=O)N3CCC[C@H]3C=N4)CC1)C=CC(C)(C)O2 | 469 nM | 2.45 µM |
| COc1ccc(-c2[nH]ncc2-c2cc3c(c(OC)c2)OCC(=O)N3)cc1 | 354 nM | 28.4 µM |
| CO[C@H](C(=O)[C@@H](O)[C@@H](C)O)[C@@H]1Cc2cc3cc(O[C@H]4C[C@@H](O[C@H]5C[C@@H](O)[C@H](O)C(C)O5)[C@H](O)C(C)O4)c(C)c(O)c3c(O)c2C(=O)[C@H]1O[C@H]1C[C@@H](O[C@H]2C[C@@H](O[C@H]3C[C@@H](OC)[C@H](O)C(C)O3)[C@@H](O)C(C)O2)C(O)(O)C(C)O1 (some centres not stated) | 138 nM | 1.17 µM |
| C[n+]1c(/C=C\C=C\N2CCCCC2)sc2ccccc21 | 238 nM | 3.8 µM |
| CC(=O)C1=C(O)C=C2Oc3c(C(=O)/C=C/c4cc(C(F)(F)F)cc(C(F)(F)F)c4)c(O)c(C)c(O)c3[C@]2(C)C1=O | 1290 nM | 4.46 µM |
| COC1=CC(c2ccc[nH]2)=N/C1=C\c1[nH]c(C)c(C(=O)OCc2ccccc2)c1C | 58.4 nM | 0.73 µM |
| CC(C)[C@](O)(c1ccc2cc(OC(F)F)c(OC(F)F)cc2c1)c1cn[nH]n1 | 20900 nM and 14200 nM | 57.6 µM and 41.3 µM |
| COc1cc(C(=O)OCCCCCCCCCCC[P+](c2ccccc2)(c2ccccc2)c2ccccc2)ccc1O | 284 nM | 1.09 µM |
| Cc1c2cnccc2c(C)c2c1c1cc(C3OCCCO3)ccc1n2C | 260 nM | 0.928 µM |
| Cc1cc(C)nc(NC(N)=NCCc2ccccc2)n1 | 1910 nM | 8.95 µM |
| O=P([O-])(O)OP(=O)([O-])O.[NH-][C@H]1CCCC[C@@H]1[NH-].[OH-].[OH-].[Pt+4] | 18800 nM | 39.9 µM |
| CC1=C([Se]CC(OC(=O)[C@@H](CSSC(C)(C)C)NC(=O)OC(C)(C)C)C(=O)NC(C)(C)C)C(=O)c2ccccc2C1=O (some centres not stated) | 1660 nM | 3.77 µM |
| Cc1nc2ccc(CN(C)c3ccc(C(=O)N[C@@H](CCC(=O)O)C(=O)O)s3)cc2c(=O)[nH]1 | 57.8 nM | > 100 µM |
| FC(F)(F)c1ccc(-c2nc(-c3nc4cc(Cl)c(Cl)cc4[nH]3)c3ccccn23)cc1 | 3050 nM | > 100 µM |
| Cc1ccccc1NC(=S)Nc1ccccn1 | 11800 nM | 81.2 µM |
| CC/C(Cc1ccccc1)=C(\c1ccc(OCCN2CCCCCC2)cc1)c1ccc(OC(=O)NCc2ccccc2)cc1 | 2030 nM | 8.15 µM |
| O=[N+]([O-])c1ccc(Nc2ccccc2-c2ccccc2)c2nonc12 | 5200 nM | 30.5 µM |
| C=CC(=O)Nc1ccc(Nc2nccc(-c3ccc(N4CCCC4)c(C#N)c3)n2)cc1 | 7430 nM | > 25 µM |
| Cn1cc(-c2nonc2-c2c[nH]c3ccccc23)c2ccccc21 | 304 nM | 3.12 µM |
| Cc1ccc(C(=O)N(CCCN)[C@@H](c2nc3cc(Cl)ccc3c(=O)n2Cc2ccccc2)C(C)C)cc1 | < 10 nM | < 0.01 µM |
| OCC1OC(c2scc3c(=S)nc[nH]c23)C(O)C1O (configuration not stated) | 8390 nM | > 100 µM |
| Cc1c2cc[nH]c(=O)c2c(C)c2c1[nH]c1cc(OCCN3CCN(C)CC3)ccc12 | 355 nM | 1.87 µM |
| COc1cc(-c2nn3c(/C=C4/C(=O)Nc5ccccc54)c(-c4ccc(C)cc4)nc3s2)cc(OC)c1OC | 4840 nM | 30.6 µM |
| C=C1C(=O)O[C@H]2[C@H]1CC/C(CNC(=O)/C=C/c1ccc(Br)cc1)=C\CC[C@@]1(C)O[C@@H]21 | 391 nM | 1.67 µM |
| O=C(/C=C/c1ccc(B(O)O)cc1)/C=C/c1ccc(B(O)O)cc1 | 1720 nM | 4.34 µM |
| O=S(=O)(Nc1ncccn1)c1ccc(N=Nc2ccc(O)c3ncccc23)cc1 | 8830 nM | 31.2 µM |
